From ChEMBL document CHEMBL1152297, “Quantitative three dimensional structure linear interaction energy model of 5'-O-[N-(salicyl)sulfamoyl]adenosine and the aryl acid adenylating enzyme MbtA” (J Med Chem, 2008)

Biological target: T1, Salicyl-AMP ligase / salicyl-S-ArCP synthetase (Mycobacterium tuberculosis, UniProt P71716)
T1 sequence (P71716 whole entry): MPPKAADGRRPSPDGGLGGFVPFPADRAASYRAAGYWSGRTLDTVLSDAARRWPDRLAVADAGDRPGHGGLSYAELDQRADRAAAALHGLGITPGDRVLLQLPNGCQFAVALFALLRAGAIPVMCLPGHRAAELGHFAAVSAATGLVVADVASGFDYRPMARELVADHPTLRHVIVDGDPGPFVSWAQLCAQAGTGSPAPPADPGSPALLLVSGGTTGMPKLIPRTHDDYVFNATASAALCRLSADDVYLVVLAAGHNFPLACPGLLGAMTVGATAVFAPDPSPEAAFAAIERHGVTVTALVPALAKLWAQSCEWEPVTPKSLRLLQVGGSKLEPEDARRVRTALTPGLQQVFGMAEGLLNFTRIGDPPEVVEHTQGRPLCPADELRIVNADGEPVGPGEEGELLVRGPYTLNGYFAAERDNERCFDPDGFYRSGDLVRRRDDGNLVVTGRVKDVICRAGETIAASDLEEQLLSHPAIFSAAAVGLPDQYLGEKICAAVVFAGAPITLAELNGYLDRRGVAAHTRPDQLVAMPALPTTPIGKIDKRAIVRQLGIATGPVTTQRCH
Experiment: Inhibition of Mycobacterium tuberculosis BAG RV143 MbtA expressed in Escherichia coli BL21 (DE3) assessed as ATP-[32P]PPi exchange by liquid scintillation counting
Details: read-out: Ki(app)

Structure (SMILES) | Ki [nM]
Nc1ncnc2c1ncn2[C@H]1C=C[C@@H](COS(=O)(=O)NC(=O)c2ccccc2O)C1 | 830
Nc1ncnc2c1ncn2[C@@H]1O[C@H](COS(=O)(=O)NC(=O)c2ccccc2O)C[C@H]1O | 3.2
Nc1ncnc2c1ncn2[C@H]1CC[C@@H](COS(=O)(=O)NC(=O)c2ccccc2O)C1 | 61
Nc1ncnc2c1ncn2[C@@H]1O[C@H](COS(=O)(=O)CC(=O)c2ccccc2O)[C@@H](O)[C@H]1O | 3300
Nc1ncnc2c1ncn2[C@@H]1O[C@H](CNS(=O)(=O)NC(=O)c2ccccc2O)[C@@H](O)[C@H]1O | 3.8
Nc1ncnc2c1ncn2[C@@H]1C[C@H](COS(=O)(=O)NC(=O)c2ccccc2O)[C@@H](O)[C@H]1O | 2.3
Nc1ncnc2c1ncn2[C@H]1C[C@H](O)[C@@H](COS(=O)(=O)NC(=O)c2ccccc2O)O1 | 3.5
Nc1ncnc2c1ncn2[C@@H]1O[C@H](CNS(=O)(=O)/C=C/c2ccccc2O)[C@@H](O)[C@H]1O | 143000
Nc1ncnc2c1ncn2[C@@H]1O[C@H](COS(=O)(=O)NCc2ccccc2O)[C@@H](O)[C@H]1O | 410
